Results reported in article PMC2707266 (2009).
Where two headings read alike, the source gives them in different places.

What was measured:
Assay type in all cases: biochemical
KPC-2 [1] = molecular target: T1, KPC-2 (Klebsiella pneumoniae, UniProt Q9F663); experiment: nitrocefin hydrolysis at […] nm, […] min pre-incubation
KPC-2 [2] = molecular target: T1, KPC-2; experiment: steady-state kinetics of hydrolysis at […] nm
KPC-2 [3] = molecular target: T1, KPC-2; experiment: nitrocefin hydrolysis at […] nm, […] min pre-incubation; remark: listed apart in the source

T1 sequence (Q9F663 25-293, looked up): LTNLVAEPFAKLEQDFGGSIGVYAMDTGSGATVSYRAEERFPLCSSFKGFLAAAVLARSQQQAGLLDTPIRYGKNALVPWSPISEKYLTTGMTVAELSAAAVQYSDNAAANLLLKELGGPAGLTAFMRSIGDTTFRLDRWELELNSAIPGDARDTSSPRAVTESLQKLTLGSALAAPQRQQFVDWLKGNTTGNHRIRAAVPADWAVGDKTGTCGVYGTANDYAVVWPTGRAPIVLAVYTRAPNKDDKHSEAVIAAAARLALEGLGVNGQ

## O=C(O)[C@H]1/C(=C/CO)O[C@@H]2CC(=O)N21 [clavulanate]
KPC-2 [1]
  IC50: 6.5 µM

## O=C(Cc1cccs1)N[C@@H]1C(=O)N2C(C(=O)O)=C(/C=C/c3ccc([N+](=O)[O-])cc3[N+](=O)[O-])CS[C@H]12 [nitrocefin]
KPC-2 [2]
  Km: 52 µM

## C[C@]1(Cn2ccnn2)[C@H](C(=O)O)N2C(=O)C[C@H]2S1(=O)=O [tazobactam]
KPC-2 [3]
  IC50: 9.2 µM
